Our source for the TGI values is PubChem BioAssay (NCI).

Assay in all cases: NCI tumour cell line growth inhibition, 48 h
Assay [1] concerns SK-OV-3 ovarian.
For assay [2], the system named is UO-31 renal.
The subject of assay [3] is HS 578T breast.
Assay [4] relates to BT-549 breast.
Assay [5] deals with 786-0 renal.
The subject of assay [6] is HCC-2998 colon.
For assay [7], the system named is LOX IMVI melanoma.
Assay [8] has as its system OVCAR-3 ovarian.
Assay [9] concerns RXF 393 renal.
Assay [10] relates to M14 melanoma.
Assay [11] deals with MALME-3M melanoma.

SMILES strings stand for the structures.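 1) Cells in 96-well plates. 2) Compound, 48 h, 5 concentrations. 3) Linear interpolation between surrounding doses. 4) Unreached endpoint = highest concentration. At the TGI there is no net growth.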 A value given as a limit tells only on which side of the number the result lay.

Regarding `O=CC1OC(=O)c2cc(O)c(O)c(O)c2-c2c(cc(O)c(O)c2O)C(=O)OC1C1OC(=O)c2cc(O)c(O)c(O)c2-c2c(O)c(O)c3oc(=O)c4c(c(O)c(O)c5oc(=O)c2c3c54)-c2c(cc(O)c(O)c2O)C(=O)OCC1O` (stereo not given), the TGI in assay [1] was over 100 µM; in assay [2], over 100 µM; in assay [3], over 100 µM; in [4], over 100 µM; in assay [5], 42.6 µM; in assay [6] it was over 100 µM. The TGI in assay [7] was 29.2 µM; in assay [8], over 100 µM; in assay [9], over 100 µM; in assay [10], over 100 µM; in assay [11], over 100 µM.

Turning to `CCOC(=O)c1cc([N+](=O)[O-])c(Sc2ncnc3nc[nH]c23)c([N+](=O)[O-])c1`, the TGI was 5.04 µM in [1]; 7.08 µM in [2]; 49.1 µM in [3]; 20.1 µM in assay [4]; 7.98 µM in [5]; 36.7 µM in assay [6]. Moreover, the TGI was determined as 17.9 µM in assay [7]; 7.52 µM in assay [8]; 23.3 µM in [9]; 15 µM in [10]; 18.1 µM in assay [11].

`CC1CC(=O)Nc2ccccc2N1C(=O)C1CC1` (stereo not given): the TGI in assay [1], in assay [2], in [3], in [4], in assay [5] and in [6] was over 100 µM in each case. The TGI in [7], in assay [8], in [9], in assay [10] and in assay [11] was over 100 µM in each case.

Turning to `CCOc1cc2c(cc1O)C(=O)C[C@@H]1[C@@H]2CC[C@]2(C)[C@@H](O)CC[C@@H]12`, the TGI in [1] was over 73.6 µM; in assay [2], over 100 µM; in assay [3], over 12.4 µM; in [4], 28.9 µM; in [5], over 53.8 µM; in [6] it was 4.56 µM. The TGI was over 100 µM in assay [7]; 1.7 µM in assay [8]; over 100 µM in assay [9]; over 38.9 µM in [10]; over 9.3 µM in assay [11].

As for `CN(Cc1cnc2nc(N)nc(N)c2n1)c1ccc(C(=O)NCCCC(=O)O)cc1`, the TGI in [1], in [2], in assay [3], in [4], in assay [5] and in [6] was over 100 µM each time. In addition, the TGI in assay [7], in assay [8], in assay [9], in assay [10] and in assay [11] was over 100 µM throughout.

On to `CON[N+]([O-])=NC(C)C`, for which the TGI in assay [1], in assay [2], in [3], in assay [4], in [5] and in assay [6] was over 100 µM in each case. The TGI in assay [7], in [8], in assay [9], in assay [10] and in assay [11] was over 100 µM in each case.

Consider `Cc1cccc(N=N/C(=N\NC(=O)c2cc(Cl)ccc2O)c2ccc(N(CCC#N)CCC#N)cc2C)c1`, for which the TGI was over 100 µM in assay [1]; 82.9 µM in assay [2]; over 100 µM in [3]; over 100 µM in assay [4]; over 100 µM in assay [5]; 58.7 µM in assay [6]. The TGI in [7] was over 100 µM; in assay [8] it was 49.6 µM; in assay [9] it was 97.3 µM; in [10], over 100 µM; in [11], 94.1 µM.

As to `CC1(C)N([O-])[N+](=O)C1(C)O` (stereo not given), the TGI in assay [1], in assay [2], in assay [3], in assay [4], in assay [5] and in assay [6] was over 100 µM throughout. The TGI in assay [7], in assay [8], in assay [9], in assay [10] and in assay [11] was over 100 µM throughout.

For the compound `COC(=O)[C@H](Cc1ccccc1)NC(=O)N(CCNC(=O)OC(C)(C)C)c1ccccc1`, the TGI in assay [1], in assay [2], in [3], in assay [4], in assay [5] and in [6] was over 100 µM each time. Also, the TGI in assay [7], in assay [8], in assay [9], in assay [10] and in assay [11] was over 100 µM in each case.

Consider `N=c1oc2cc(O)ccc2cc1C(=O)Nc1cccc2ccccc12`, for which the TGI is 27.6 µM in assay [1]; 19.9 µM in assay [2]; over 100 µM in assay [3]; 11.5 µM in assay [4]; 17.3 µM in assay [5]; 12.9 µM in assay [6]. Also, the TGI in [7] was 18.4 µM; in assay [8], over 27.9 µM; in [9], 18.7 µM; in [10] it was 60 µM; in assay [11], 15.5 µM.
